Laboratory results: patent US6569229B1, “Low-freezing point formulation containing phenol derivatives” (Omya AG, priority 1998, dated 2003)

How the values were obtained:
aerobic mesophilic germs = assay: Germ count (determination of aerobic mesophilic germs) in preserved slurry or coolant; type: cell-based, pseudomonads (predominantly Pesudomonas aeruginosa)
Method: The germ count was determined according to the method “Determination of aerobic mesophilic germs”, Schweizerisches Lebensmittelbuch, chapter 56, paragraph 7.01, 1985 edition, revised version 1988. Mostly, the bacterial strains detected were from the family of pseudomonads (predominantly Pesudomonas aeruginosa).

[1] = pH of the preserved slurry or coolant; type: physicochemical
[2] = Brookfield viscosity of the preserved pigment slurry; type: physicochemical
Method: Measurement of the viscosity was performed on a Brookfield viscosimeter type PVF-100 at 100 rpm. The following spindles were used for the individual measurements:
The measurement was carried out in a low 400 ml beaker.
The temperature during the measurement was 20° C. The measurement was performed after 1 min of stirring.
Prior to the actual measurements, all samples were stirred intensively for 2 min (5000 rpm, stirring disc diameter 50 mm).
This type of viscosity measurement was used in all of the following examples.

[3] = Solubility / miscibility in water and attainable concentration; type: physicochemical; conditions: NaOH as neutralizing agent, room temperature; higher concentrations impossible or recrystallized during storage
[4] = cited from earlier work

With `Oc1ccccc1-c1ccccc1` [o-phenylphenol] the “germ count after 24 hrs” value (aerobic mesophilic germs; 5% oil in water coolant emulsion, 2 kg actives/t, added as 50% solution (Example 13), blank 10^7/g) was less than 100 g⁻¹, the “germ count after 24 hrs” value (aerobic mesophilic germs; calcium carbonate slurry, 250 g actives/t, added according to example 8, 47.5% solution (Example 11), blank 10^6/g) was less than 100 g⁻¹ and the “germ count after 24 hrs” value (aerobic mesophilic germs; calcium carbonate slurry, 250 g actives/t, added as solution of example 2 (Example 4), blank 10^5/g) was less than 100 g⁻¹. For the same molecule, the “germ count after 24 hrs” value (aerobic mesophilic germs; kaolin slurry, 300 g actives/t, added as solution of example 1 (Example 3), blank 10^5/g) was less than 100 g⁻¹, the “germ count after 24 hrs” value (aerobic mesophilic germs; kaolin slurry, 300 g actives/t, added as solution of example 7 (Example 10), blank 10^5/g) was less than 100 g⁻¹ and the “germ count after 24 hrs” value (aerobic mesophilic germs; talc slurry, 350 g actives/t, added as 30% solution of example 9 (Example 12), blank 10^5/g) was less than 100 g⁻¹. The pH of coolant ([1]; 5% oil in water coolant emulsion, 2 kg actives/t, added as 50% solution (Example 13), blank 6.9) was 7.0, the pH of slurry ([1]; calcium carbonate slurry 77.8% solids, 250 g actives/t, added according to example 8, 47.5% solution (Example 11), blank 9.6) was 9.5 and the pH of slurry ([1]; calcium carbonate slurry 77.8% solids, 250 g actives/t, added as solution of example 2 (Example 4, prior art), blank 9.6) was 10.2. It also gave a pH of slurry ([1]; kaolin slurry 72.8% solids, 300 g actives/t, added as solution of example 1 (Example 3, prior art), blank 7.4) of 8.1, a pH of slurry ([1]; kaolin slurry 72.8% solids, 300 g actives/t, added as solution of example 7 (Example 10), blank 7.4) of 7.4 and a pH of slurry ([1]; talc slurry 64.2% solids, 350 g actives/t, added as 30% solution of example 9 (Example 12), blank 10.1) of 10.2. The “Brookfield viscosity spindle 3, 100 rpm after preparation” value ([2]; calcium carbonate slurry 77.8% solids, 250 g actives/t, added according to example 8, 47.5% solution (Example 11), blank 340) was 350 mPas, the “Brookfield viscosity spindle 3, 100 rpm after 1 week” value ([2]; calcium carbonate slurry 77.8% solids, 250 g actives/t, added according to example 8, 47.5% solution (Example 11), blank 350) was 380 mPas and the “Brookfield viscosity spindle 3, 100 rpm after preparation” value ([2]; calcium carbonate slurry 77.8% solids, 250 g actives/t, added as solution of example 2 (Example 4), blank 340) was 320 mPas. For the same molecule, the “Brookfield viscosity spindle 3, 100 rpm after 1 week” value ([2]; calcium carbonate slurry 77.8% solids, 250 g actives/t, added as solution of example 2 (Example 4), blank 350) was 460 mPas, the “Brookfield viscosity spindle 3, 100 rpm after preparation” value ([2]; kaolin slurry 72.8% solids, 300 g actives/t, added as solution of example 1 (Example 3), blank 240) was 310 mPas and the “Brookfield viscosity spindle 3, 100 rpm after 1 week” value ([2]; kaolin slurry 72.8% solids, 300 g actives/t, added as solution of example 1 (Example 3), blank 330) was 760 mPas. For the same molecule, the “Brookfield viscosity spindle 3, 100 rpm after preparation” value ([2]; kaolin slurry 72.8% solids, 300 g actives/t, added as solution of example 7 (Example 10), blank 240) was 250 mPas, the “Brookfield viscosity spindle 3, 100 rpm after 1 week” value ([2]; kaolin slurry 72.8% solids, 300 g actives/t, added as solution of example 7 (Example 10), blank 330) was 350 mPas and the “Brookfield viscosity spindle 3, 100 rpm after preparation” value ([2]; talc slurry 64.2% solids, 350 g actives/t, added as 30% solution of example 9 (Example 12), blank 320) was 320 mPas. The “Brookfield viscosity spindle 3, 100 rpm after 1 week” value ([2]; talc slurry 64.2% solids, 350 g actives/t, added as 30% solution of example 9 (Example 12), blank 480) was 540 mPas, the “attainable concentration of o-phenylphenol solution” value [3] was no more than 20 % by wt and the solubility in water [4] was “almost insoluble in water”. For the same molecule, the water miscibility ([4]; o-phenylphenol in monopropylene glycol) was “not water miscible”.
